pIC50: −log10 of the molar value.
Organism: Oryctolagus cuniculus
Assay: Compound was tested for inhibitory effect on protein biosynthesis in rabbit reticulocyte lysates
Type: functional

Row | Compound | pIC50
1 | CC[C@H](C)[C@H]1NC(=O)[C@@H](NC(=O)[C@@H](CC(C)C)N(C)C(=O)C2CCCN2C(=O)[C@H](C)O)[C@@H](C)OC(=O)[C@H](CC(C)C)N(C)C(=O)[C@@H]2CCCN2C(=O)[C@H](CC(C)C)NC(=O)[C@@H](C)C(=O)[C@H](C(C)C)OC(=O)C[C@@H]1O (some centres not stated) [[N-ME LEU5] DIDEMNIN B] | 5.05
2 | CC[C@H](C)[C@H]1NC(=O)[C@@H](NC(=O)[C@@H](CC(C)C)N(C)C(=O)C2CCCN2C(=O)[C@H](C)O)[C@@H](C)OC(=O)[C@@H]2Cc3ccccc3CN2C(=O)[C@@H]2CCCN2C(=O)[C@H](CC(C)C)NC(=O)[C@@H](C)C(=O)[C@H](C(C)C)OC(=O)C[C@@H]1O (some centres not stated) | 5.57
